Results published in patent publication US8785463B2, “GPR 119 agonists” (Cadila Healthcare Limited, priority 2010, dated 2014).

Target: T1, human GPR 119 receptor (Homo sapiens, UniProt Q8TDV5)
T1 construct: expressed in transfected cells
T1 sequence (Q8TDV5 1-335): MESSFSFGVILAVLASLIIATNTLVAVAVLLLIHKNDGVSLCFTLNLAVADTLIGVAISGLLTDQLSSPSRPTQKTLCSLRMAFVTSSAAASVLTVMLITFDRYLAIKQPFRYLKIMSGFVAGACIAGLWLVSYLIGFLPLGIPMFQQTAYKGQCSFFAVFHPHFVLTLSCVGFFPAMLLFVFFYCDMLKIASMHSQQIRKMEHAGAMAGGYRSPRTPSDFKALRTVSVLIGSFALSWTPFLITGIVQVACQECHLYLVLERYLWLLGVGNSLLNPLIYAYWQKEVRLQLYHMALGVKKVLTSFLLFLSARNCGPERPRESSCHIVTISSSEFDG
Assay: cAMP assay in stable cell line expressing recombinant human GPR 119 receptor
Type: cell-based
Conditions: DMSO = 1
Source text: A stable cell line expressing recombinant human GPR 119 receptor was established and used to investigate the efficacy of the compounds of the invention based on the intracellular levels of cyclic AMP (cAMP) using commercially available cAMP kits.

SMILES | Fold increase in cyclic AMP with respective to DMSO (10 nM compound) [fold] | Fold increase in cyclic AMP with respective to DMSO (100 nM compound) [fold] | Fold increase in cyclic AMP with respective to DMSO (1 uM compound) [fold]
CCc1cnc(N2CCC(Oc3ncnc(Oc4ccc(/C=C5\SC(=O)N(S(C)(=O)=O)C5=O)cc4)c3C)CC2)nc1 [Example 3, (2)-5-(4-((6-((1-(5-Ethylpyrimidin-2-yl)piperidin-4-yl)oxy)-5-methylpyrimidin-4-yl)oxy)benzylidene)-3-(methylsulfonyl)thiazolidine-2,4-dione] | 0.64 | 0.88 | 2.02
CCOC(=O)N1CCC(Oc2ncnc(Oc3cccc(/C=C4\SC(=O)N(C)C4=O)c3)c2C)CC1 [Example 4, (Z)-Ethyl-4-((5-methyl-6-(3-((3-methyl-2,4-dioxothiazoldin-5-ylidene)methy 1)phenoxy)pyrimidin-4-yl)oxy)piperidine-1-carboxylate] | 4.52 | 4.95 | 7.17
COc1cc(/C=C2\SC(=O)NC2=O)ccc1Oc1ncnc(OC2CCN(C(=O)OC(C)(C)C)CC2)c1C [Example 8, (Z)-tert-Butyl 4-((6-(4-((2,4-dioxothiazolidin-5-ylidene)methyl)-2-methoxyphenoxy)-5-methylpyrimidin-4-yl)oxy)piperidine-1-carboxylate] | 0.52 | 0.85 | 1.67
CC(C)c1noc(N2CCC(Oc3cc(Oc4ccc(/C=C5\SC(=O)NC5=O)cc4)ncn3)CC2)n1 [Example 10, (Z)-5-(4-((6-((1-(3-iso-Propyl-1,2,4-oxadiazol-5-yl)piperidin-4-yl)oxy)pyrimidin-4-yl)oxy)benzylidene)thiazolidine-2,4-dione] | 1.14 | 2.30 | 5.06
COC(=O)N1CCC(Oc2ncnc(Oc3ccc(/C=C4\SC(=O)NC4=O)cc3)c2C)CC1 [Example 11, (Z)-Methyl 4-((6-(4-((2,4-dioxothiazolidin-5-ylidene)methyl)phenoxy)-5-methylpyrimidin-4-yl)oxy)piperidine-1-carboxylate] | 1.00 | 1.38 | 2.51
Cc1c(Oc2ccc(/C=C3\SC(=O)NC3=O)cc2)ncnc1OC1CCN(C(=O)OCc2ccccc2)CC1 [Example 13, (Z)-Benzyl 4-((6-(4-((2,4-dioxothiazolidin-5-ylidene)methyl)phenoxy)-5-methylpyrimidin-4-yl)oxy)piperidine-1-carboxylate] | 0.61 | 0.63 | 1.42
CCOC(=O)N1CCC(Oc2ncnc(Oc3ccc(/C=C4\SC(=O)NC4=O)cc3)c2C)CC1 [Example 14, (Z)-Ethyl 4-((6-(4-((2,4-dioxothiazolidin-5-ylidene)methyl)phenoxy)-5-methylpyrimidin-4-yl)oxy)piperidine-1-carboxylate] | 1.40 | 2.40 | 6.61
Cc1c(Oc2ccc(/C=C3\SC(=O)NC3=O)cc2)ncnc1OC1CCN(C(=O)OCC(C)C)CC1 [Example 15, (Z)-iso-Butyl 4-((6-(4-((2,4-dioxothiazolidin-5-ylidene)methyl)phenoxy)-5-methylpyrimidin-4-yl)oxy)piperidine-1-carboxylate] | 1.72 | 2.19 | 3.28
Cc1c(Oc2ccc(/C=C3\SC(=O)NC3=O)cc2)ncnc1OC1CCN(C(=O)OC(C)C)CC1 [Example 16, (Z)-iso-Propyl 4-((6-(4-((2,4-dioxothiazolidin-5-ylidene)methyl)phenoxy)-5-methylpyrimidin-4-yl)oxy)piperidine-1-carboxylate] | 1.91 | 2.54 | 3.17
Cc1c(Oc2ccc(/C=C3\SC(=O)NC3=O)cc2)ncnc1OC1CCN(c2ncccn2)CC1 [Example 17, (Z)-5-(4-((5-Methyl-6-((1-(pyrimidin-2-yl)piperidin-4-yl)oxy)pyrimidin-4-yl)oxy)benzylidene)thiazolidine-2,4-dione] | 0.84 | 1.06 | 2.57
Cc1c(OCC2CCCN2C(=O)OC(C)(C)C)ncnc1Oc1ccc(/C=C2\SC(=O)NC2=O)cc1 (stereo not drawn) [Example 18, (Z)-tert-Butyl 2-(((6-(4-((2,4-dioxothiazolidin-5-ylidene)methyl)phenoxy)-5-methylpyrimidin-4-yl)oxy)methyl)pyrrolidine-1-carboxylate] | 1.50 | 2.57 | 4.03
CC(C)(C)OC(=O)N1CCC(Oc2cc(Oc3cccc(/C=C4\SC(=O)NC4=O)c3)ncn2)CC1 [Example 19, (Z)-tert-Butyl 4-((6-(3-((2,4-dioxothiazolidin-5-ylidene)methyl)phenoxy)pyrimidin-4-yl)oxy)piperidine-1-carboxylate] | 1.31 | 1.92 | 4.24
CCOC(=O)N1CCC(Oc2ncnc(Oc3cccc(/C=C4\SC(=O)NC4=O)c3)c2C)CC1 [Example 20, (Z)-Ethyl 4-((6-(3-((2,4-dioxothiazolidin-5-ylidene)methyl)phenoxy)-5-methylpyrimidin-4-yl)oxy)piperidine-1-carboxylate] | 0.59 | 2.02 | 2.39
COC(=O)N1CCC(Oc2ncnc(Oc3cccc(/C=C4\SC(=O)NC4=O)c3)c2C)CC1 [Example 21, (Z)-Methyl 4-((6-(3-((2,4-dioxothiazolidin-5-ylidene)methyl)phenoxy)-5-methylpyrimidin-4-yl)oxy)piperidine-1-carboxylate] | 0.92 | 1.06 | 2.35
Cc1c(Oc2cccc(/C=C3\SC(=O)NC3=O)c2)ncnc1OC1CCN(C(=O)OCC(C)C)CC1 [Example 22, (Z)-iso-Butyl 4-((6-(3-((2,4-dioxothiazolidin-5-ylidene)methyl)phenoxy)-5-methylpyrimidin-4-yl)oxy)piperidine-1-carboxylate] | 0.95 | 1.82 | 1.66
Cc1c(OCC2CCCN2C(=O)OC(C)(C)C)ncnc1Oc1cccc(/C=C2\SC(=O)NC2=O)c1 (stereo not drawn) [Example 23, (Z)-tert-Butyl 2-(((6-(3-((2,4-dioxothiazolidin-5-ylidene)methyl)phenoxy)-5-methylpyrimidin-4-yl)oxy)methyl)pyrrolidine-1-carboxylate] | 0.90 | 1.29 | 1.11
